Measured values: paper PMC4741190, “Crystal structure of the flavoenzyme PA4991 from Pseudomonas aeruginosa” (Acta Crystallographica. Section F, Structural Biology …, 2016)

Biological target: T1, PA4991 (Pseudomonas aeruginosa, UniProt Q9HUH4)
T1 construct: N-terminal His6 tag cut with TEV protease; expressed in E. coli BL21(DE3)
T1 sequence (Q9HUH4 1-391): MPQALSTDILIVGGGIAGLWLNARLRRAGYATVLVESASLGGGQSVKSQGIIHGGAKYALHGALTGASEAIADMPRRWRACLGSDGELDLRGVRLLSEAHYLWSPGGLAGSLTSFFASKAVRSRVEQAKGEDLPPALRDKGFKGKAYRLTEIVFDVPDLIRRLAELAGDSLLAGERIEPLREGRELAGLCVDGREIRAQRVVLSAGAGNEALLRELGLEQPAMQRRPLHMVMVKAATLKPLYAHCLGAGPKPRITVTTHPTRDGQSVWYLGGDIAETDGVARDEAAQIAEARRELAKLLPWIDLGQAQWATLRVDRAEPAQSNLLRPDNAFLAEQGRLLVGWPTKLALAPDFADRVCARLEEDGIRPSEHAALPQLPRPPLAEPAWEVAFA
Test: X-ray crystal structure, […] A; UV-visible spectrum
Assay type: binding
Conditions: noncovalent; co-purified cofactor, extended conformation; crystals pH 8.5, soaked in 1 mM phenylmercuric chloride

With Cc1cc2nc3c(=O)[nH]c(=O)nc-3n(C[C@H](O)[C@H](O)[C@H](O)COP(=O)(O)OP(=O)(O)OC[C@H]3O[C@@H](n4cnc5c(N)ncnc54)[C@H](O)[C@@H]3O)c2cc1C [FAD] the “X-ray crystal structure, 2.40 A; UV-visible spectrum” value was “FAD is bound noncovalently to PA4991 in an extended conformation”.
